From US20120232062A1, “AZAINDAZOLES TO TREAT FLAVIVIRIDAE VIRUS INFECTION” (EIGER BIOPHARMACEUTICALS, INC., priority 2009, published 2012)
pEC50, pIC50: −log10 of the molar value.

Tests used:
[1] = target: FTase (Homo sapiens, UniProt P49356); details: cited from earlier work
[2] = system: HCV genotype 1b; experiment: HCV 1b replicon luciferase assay; format: cell-based; details: Hepatitis C virus, Huh-7, 48 h, Table 1; Huh7 HCV 1b replicon, luciferase reporter, 48 hours; read-out: 1b EC50
Summary of the method: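 Huh7 cells carrying a genotype 1b replicon with stable luciferase reporter, 10k cells/well, were treated 48 h at 37 °C with 10-point 5-fold dilutions from 25 μM (0.1% DMSO), in duplicate. Replication was read as Steady-Glo luminescence.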

[3] = target: T1, hERG channel (Homo sapiens, UniProt Q12809); experiment: hERG channel assay; format: cell-based; details: CHO cell line expressing hERG, whole cell recordings
T1 construct: host or cells: CHO (Chinese Hamster Ovary), stably transfected
Protocol: The most common mechanism for these adverse events is the inhibition of one or more cardiac potassium channels, in particular hERG. This current is important for cardiac myocyte repolarization and is a common target for drugs that prolong the QT interval. Test articles in this study were therefore characterized to determine their ability to inhibit the hERG channel. Ion channel activity was measured using a stably transfected Chinese Hamster Ovary (CHO) cell line expressing the hERG mRNA. The pharmacology of this cloned channel expressed in the CHO cell line is very similar to that observed in native tissue.
Cells: AVIVA's CHO cell line, which stably expresses hERG channels, was used for the study. Cells were cultured in DMEM/F12 containing 10% FBS, 1% penicillin/streptomycin and 500 μg/ml G418. Before testing, cells were harvested using Accumax (Innovative Cell Technologies).
Solutions: For electrophysiological recordings, the following solutions were used. External Solution: 2 mM CaCl2; 2 mM MgCl2; 4 mM KCl; 150 mM NaCl; 10 mM Glucose; 10 mM HEPES; 310-320 mOsm; pH 7.4 (adjusted with 1M NaOH). Internal Solution: 140 mM KCl; 10 mM MgCl2; 6 mM EGTA; 5 mM HEPESNa; […]; 300-320 mOsm; pH 7.25 (adjusted with 1M KOH).
Electrophysiology: Whole cell recordings were performed using PX 7000A (Axon Instruments) with VIVA's SealChip™ technology. Cells were voltage clamped at a holding potential of −80 mV. The hERG current was then activated by a depolarizing step to −50 mV for 300 ms. This first step at −50 mV was used as a baseline for measuring peak amplitude of the tail current. Next, a voltage step to +20 mV was applied for 5 s to activate the channels. Finally a step back to −50 mV for 5 seconds removed activation and the deactivating tail current was recorded.
Compound Handling and Dilutions: All compounds were prepared from either 10 or 30 mM DMSO stock solutions. Solutions were mixed by sonication for 20 min, followed by vigorous vortexing. Prior to testing, compounds were diluted to test concentrations in glass vials using External Solution. Dilutions were prepared no longer than 20 min prior to use. Equal amounts of DMSO (0.1%) were present in all final dilutions.
Electrophysiology Procedures: After achieving whole cell configuration, cells were monitored for 90 s to assess stability and then washed with External Solution for 66 s. The voltage protocol described above was then applied to the cells every 12 s throughout the procedure. Only stable cells with recording parameters above threshold (see Quality Control section) were allowed to enter the drug addition procedure. External solution containing 0.1% DMSO (vehicle) was applied to the cells to establish a baseline. After allowing the current to stabilize for 3 to 5 min, test articles were applied. Test article solutions were added to cells in 4 separate additions. Cells were kept in test solution until effect of the test article reached steady state, to a maximum of 12 min. Next, 1 μM cisapride (positive control) was added. Finally, washout with External Solution was performed until the recovery current reached a steady state.
Data Analysis: Data analysis was performed using DataXpress (Axon Instruments), Clampfit (Axon Instruments) and Origin (Originlab Corporation) software.

[4] = Liver microsome stability, rat; format: in vitro ADME, Sprague Dawley rat
Text: (§1) Metabolic stability assays are designed to measure the stability of a test compound in a variety of assay matrices from human and animal species. From a metabolism perspective, a drug would be relatively stable, have a small first-pass effect, and maintain an effective concentration in blood for a reasonable period of time. A microsomal preparation from the liver contains all CYP isozymes and other membrane-bound drug metabolizing enzymes which are responsible for the metabolism for the majority of drugs in humans. Metabolic stability in liver microsomes can determine half-life (T1/2) and intrinsic clearance (Clint). The determination of Clint may be useful to determine whether metabolism is the major elimination pathway when it is compared to total body clearance in vivo. For high metabolic stability in liver microsomes: […] Human, Sprague Dawley rat, and CD-1 mouse liver microsome samples were purchased from BD Gentest. An in vitro metabolic stability assay suitable for use in predicting first pass metabolism of the compounds useful in the methods of the invention is described in this example. […] 6 mM NADPH in 0.1 M K-phosphate buffer is prepared by dissolving 25.1 mg of NADPH tetrasodium salt in 5 mL of K-phosphate buffer. […] The plate is pre-incubated at 37° C. for 10 minutes. 15 μL of NADPH stock solution (6 mM) is added to the wells designated for Time 60 and timed. At 30 min, 15 min, and 5 min, 15 μL of NADPH stock solution (6 mM) is added to the wells. At the end of incubation, 135 μL of ACN containing IS is added to all the wells (60 min, 30 min, 15 min, 5 min and 0 min). Then 15 μL of NADPH stock solution (6 mM) is added to the wells designated as Time 0.

[5] = Liver microsome stability, human; format: in vitro ADME
Text: as §1

[6] = Liver microsome stability, mouse; format: in vitro ADME, CD-1 mouse
Text: as §1

T1 sequence (Q12809 whole entry): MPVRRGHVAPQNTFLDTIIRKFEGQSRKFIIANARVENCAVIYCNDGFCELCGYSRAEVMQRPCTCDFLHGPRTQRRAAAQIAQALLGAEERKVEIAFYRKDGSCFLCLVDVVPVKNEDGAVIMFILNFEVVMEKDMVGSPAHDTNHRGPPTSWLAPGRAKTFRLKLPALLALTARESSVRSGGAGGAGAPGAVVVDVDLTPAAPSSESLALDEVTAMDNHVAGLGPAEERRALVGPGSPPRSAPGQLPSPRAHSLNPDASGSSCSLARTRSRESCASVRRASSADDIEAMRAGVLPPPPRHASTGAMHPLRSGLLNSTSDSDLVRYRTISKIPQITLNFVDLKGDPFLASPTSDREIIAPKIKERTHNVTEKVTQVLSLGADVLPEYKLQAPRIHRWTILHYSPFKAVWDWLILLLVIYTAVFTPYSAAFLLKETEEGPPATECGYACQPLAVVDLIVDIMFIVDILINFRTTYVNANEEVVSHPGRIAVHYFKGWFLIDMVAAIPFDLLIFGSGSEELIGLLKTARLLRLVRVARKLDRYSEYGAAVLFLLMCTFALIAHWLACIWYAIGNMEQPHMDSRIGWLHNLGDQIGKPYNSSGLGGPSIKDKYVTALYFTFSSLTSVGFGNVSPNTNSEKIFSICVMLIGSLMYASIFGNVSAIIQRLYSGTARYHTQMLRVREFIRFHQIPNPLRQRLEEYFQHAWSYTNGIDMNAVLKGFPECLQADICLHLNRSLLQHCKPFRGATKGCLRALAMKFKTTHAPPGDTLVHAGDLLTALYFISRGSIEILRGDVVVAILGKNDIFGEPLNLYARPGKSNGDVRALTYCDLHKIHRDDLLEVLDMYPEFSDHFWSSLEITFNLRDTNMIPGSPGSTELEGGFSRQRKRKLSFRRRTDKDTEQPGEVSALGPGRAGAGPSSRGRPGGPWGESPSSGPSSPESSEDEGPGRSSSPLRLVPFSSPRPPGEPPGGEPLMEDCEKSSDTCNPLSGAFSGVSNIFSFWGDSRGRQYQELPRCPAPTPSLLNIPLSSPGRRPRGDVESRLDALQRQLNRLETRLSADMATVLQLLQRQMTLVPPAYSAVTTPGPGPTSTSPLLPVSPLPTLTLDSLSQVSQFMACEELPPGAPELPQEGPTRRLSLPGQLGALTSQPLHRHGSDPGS

SMILES: Cn1cncc1C(N)(c1ccc(Cl)cc1)c1ccc2c(c1)c(-c1cccc(Cl)c1)cc(=O)n2C (stereo not drawn) [Tipifarnib, 6-[Amino(4-chlorophenyl)-1-methyl-1H-imidazol-5-ylmethyl]-4-(3-chlorophenyl)-1-methyl-2(1H)-quinolinone]
- pIC50 [1]: 9.07

SMILES: O=C(NC1CCNCC1)c1n[nH]c2nc(N3CCCCCC3)ccc12 [compound 655]
- pEC50 [2]: 5.46 to 5.68
- pIC50 [3]: 5.87

SMILES: Cn1nc(N)c2ccc(N3CCCCCC3)nc21 [compound 658]
- pEC50 [2]: 5.66 to 6.40
- pIC50 [3]: < 5.00

SMILES: Cn1nc(NC(=O)c2cccs2)c2ccc(N3CCCCCC3)nc21 [compound 659]
- pEC50 [2]: 5.31 to 5.74
- pIC50 [3]: < 5.00

SMILES: O=C(Nc1n[nH]c2nc(N3CCCCCC3)ccc12)C1CCNCC1 [compound 680]
- pEC50 [2]: 5.39
- pIC50 [3]: < 5.00

SMILES: Cn1nc(C(=O)Nc2ccncc2)c2ccc(N3CCCCCC3)nc21 [compound 701]
- pEC50 [2]: 5.96
- pIC50 [3]: < 5.00

SMILES: O=C(NCC1CCNCC1)c1n[nH]c2nc(N3CCCCCC3)ccc12 [compound 702]
- pEC50 [2]: 5.47
- pIC50 [3]: < 5.00

SMILES: O=C(NCC1CCCNC1)c1n[nH]c2nc(N3CCCCCC3)ccc12 (stereo not drawn) [compound 703]
- pEC50 [2]: 5.66
- pIC50 [3]: 5.06

SMILES: O=C(NC1CCNCC1)c1n[nH]c2nc(OC3CCCCC3)ccc12 [compound 729]
- pEC50 [2]: 5.74
- pIC50 [3]: < 5.00

SMILES: CC(C)CN(C)c1ccc2c(C(=O)NC3CCNCC3)n[nH]c2n1 [compound 738]
- pEC50 [2]: 5.66
- pIC50 [3]: < 5.00

SMILES: O=C(NC1CCNCC1)c1n[nH]c2nc(O)ccc12 [compound 744]
- pEC50 [2]: 5.82
- pIC50 [3]: < 5.00

SMILES: O=C(Nc1nn(Cc2ccc(Cl)cc2)c2nc(N3CCCCCC3)ccc12)C1CCCNC1 (stereo not drawn) [compound 745]
- pEC50 [2]: 5.52
- pIC50 [3]: < 5.00

SMILES: CCC(CC)Oc1ccc2c(COCC3CCNCC3)nn(Cc3ccc(Cl)cc3)c2n1 [compound 756]
- pEC50 [2]: 5.66
- pIC50 ([3]; human, CHO cells stably expressing hERG, pH 7.4): 5.00

SMILES: Cn1nc(C(=O)NC2CCN(CC3CCCCC3)CC2)c2ccc(N3CCCCCC3)nc21 [compound 987]
- pEC50 [2]: 6.26
- pIC50 [3]: 6.06

SMILES: CC1CCC(C)N1CCOCc1nn(C)c2nc(N3CCCCCC3)ccc12 (stereo not drawn) [compound 1540]
- rat liver microsome (RLM), % parent remaining ([4]; after 15 min): 17 % parent remaining
- rat liver microsome (RLM), % parent remaining ([4]; after 30 min): 2 % parent remaining
- rat liver microsome (RLM), % parent remaining ([4]; after 60 min): 4 % parent remaining
- human liver microsome (HLM, % parent remaining) ([5]; after 15 min): 17 % parent remaining
- human liver microsome (HLM, % parent remaining) ([5]; after 30 min): 9 % parent remaining
- human liver microsome (HLM, % parent remaining) ([5]; after 60 min): 4 % parent remaining
- mouse liver microsome (MLM), % parent remaining ([6]; after 15 min): 34 % parent remaining
- mouse liver microsome (MLM), % parent remaining ([6]; after 30 min): 18 % parent remaining
- mouse liver microsome (MLM), % parent remaining ([6]; after 60 min): 10 % parent remaining
- pEC50 [2]: 5.57

SMILES: CC1CCCCN1CCOCc1nn(C)c2nc(N3CCCCCC3)ccc12 (stereo not drawn) [compound 1549]
- rat liver microsome (RLM), % parent remaining ([4]; after 15 min): 52 % parent remaining
- rat liver microsome (RLM), % parent remaining ([4]; after 30 min): 31 % parent remaining
- rat liver microsome (RLM), % parent remaining ([4]; after 60 min): 17 % parent remaining
- human liver microsome (HLM, % parent remaining) ([5]; after 15 min): 16 % parent remaining
- human liver microsome (HLM, % parent remaining) ([5]; after 30 min): 11 % parent remaining
- human liver microsome (HLM, % parent remaining) ([5]; after 60 min): 13 % parent remaining
- mouse liver microsome (MLM), % parent remaining ([6]; after 15 min): 27 % parent remaining
- mouse liver microsome (MLM), % parent remaining ([6]; after 30 min): 17 % parent remaining
- mouse liver microsome (MLM), % parent remaining ([6]; after 60 min): 13 % parent remaining
- pEC50 [2]: 5.40

SMILES: Cn1nc(C(=O)NC2CCN(CCN3CCCCC3CO)CC2)c2ccc(N3CCCCCC3)nc21 (stereo not drawn) [compound 1559]
- rat liver microsome (RLM), % parent remaining ([4]; after 15 min): 57 % parent remaining
- rat liver microsome (RLM), % parent remaining ([4]; after 30 min): 31 % parent remaining
- rat liver microsome (RLM), % parent remaining ([4]; after 60 min): 8 % parent remaining
- human liver microsome (HLM, % parent remaining) ([5]; after 15 min): 65 % parent remaining
- human liver microsome (HLM, % parent remaining) ([5]; after 30 min): 32 % parent remaining
- human liver microsome (HLM, % parent remaining) ([5]; after 60 min): 7 % parent remaining
- mouse liver microsome (MLM), % parent remaining ([6]; after 15 min): 54 % parent remaining
- mouse liver microsome (MLM), % parent remaining ([6]; after 30 min): 27 % parent remaining
- mouse liver microsome (MLM), % parent remaining ([6]; after 60 min): 5 % parent remaining
- pEC50 [2]: 5.74
